Measured values from PMC3863468 (BioMed Research International, 2013).

Columns and labels:
[1] = Pharmacokinetic experiment: serum imatinib and N-desmethyl imatinib by HPLC after oral imatinib with or without apigenin; conditions: for AUC(0–t) / AUC(0–∞) / C max / CLz/F / MRT(0–t) / MRT(0–∞) / T max / Vz/F / t (1/2)z: then single oral 30 mg/kg imatinib, rat serum, n = 5
Procedure: HPLC system (Agilent 1100) was equipped with quaternary pump, on-line vacuum degasser, autosampler, column compartment, diode array detector, and Agilent Chem Station Rev A.10.02. […] The detection wavelength was 282 nm, and the injection volume was 20.0 μL.
The serum samples were prepared using liquid-liquid extraction technique. A 300 μL aliquot of the serum sample was taken in a 10 mL glass test tube, and on that 20 μL of IS (100 μg/mL) was spiked and 150 μL of sodium hydroxide solution (0.01 moL/L) was added. After vortex mixing for 30 s, 3 mL of ethyl acetate was added, and the mixture was vortexed for 1 min and then centrifuged at 3000 ×g for 5 min. The organic layer was transferred into another 5 mL tube and evaporated to dryness under a stream of nitrogen gas at 40°C. The residue was reconstituted in 100 μL of mobile phase and vortex-mixed for 1 min, and 20 μL of aliquot was injected into the HPLC system for analysis.
Experimental values were expressed as x-±s . Statistical analyses of main pharmacokinetic parameters were performed by Student's unpaired test using SPSS 16.0 software. A value of P < 0.05 was considered to be significant between two groups.

[2] = cited from earlier work
[3] = group B: apigenin 165 mg/kg for 15 days
[4] = group C: single dose apigenin 165 mg/kg
[5] = group D (single dose apigenin 252 mg/kg) vs group B, rats, 30 mg/kg imatinib
[6] = group D: single dose apigenin 252 mg/kg
[7] = short-term 165 mg/kg apigenin (group C), printed comparison with group B, rats, 30 mg/kg imatinib

## Cc1ccc(NC(=O)c2ccc(CN3CCNCC3)cc2)cc1Nc1nccc(-c2cccnc2)n1 [N-desmethyl imatinib]
[1]; group A: control (0.5% CMC-Na)
  AUC(0–t): 5977 ± 1626 ng·h/mL
  AUC(0–∞): 6827 ± 2595 ng·h/mL
  C max: 678 ± 147 ng/mL
  CLz/F: 81.9 ± 29.7 mL/min/kg
  MRT(0–t): 7.085 ± 1.135 h
  MRT(0–∞): 9.718 ± 4.636 h
  T max: 3.6 ± 0.894 h
  Vz/F: 32.8 ± 10.3 L/kg
  t (1/2)z: 5.495 ± 3.92 h
[1]; group B (apigenin 165 mg/kg for 15 days) vs group A (control), rats
  main pharmacokinetic parameters, difference between group A and group B: no great differences
[1]; [3]
  AUC(0–t): 6335 ± 1105 ng·h/mL
  AUC(0–∞): 6672 ± 797 ng·h/mL
  C max: 797 ± 73 ng/mL
  CLz/F: 75.9 ± 9.87 mL/min/kg
  MRT(0–t): 6.573 ± 0.544 h
  MRT(0–∞): 7.504 ± 0.189 h
  T max: 4.0 ± 0.003 h
  Vz/F: 26.8 ± 4.49 L/kg
  t (1/2)z: 4.083 ± 0.436 h
[1]; [4]
  AUC(0–t): 4797 ± 602 ng·h/mL
  AUC(0–∞): 5050 ± 797 ng·h/mL
  C max: 547 ± 91 ng/mL
  CLz/F: 101 ± 16.5 mL/min/kg
  MRT(0–t): 7.227 ± 0.525 h
  MRT(0–∞): 8.397 ± 1.545 h
  T max: 4.0 ± 0.005 h
  Vz/F: 40.7 ± 12.8 L/kg
  t (1/2)z: 4.906 ± 2.093 h
[1]; [5]
  C max reduced compared with group B: 19.82%
  V z/F decrease compared with group B: 62.10%
[1]; [6]
  AUC(0–t): 5262 ± 890 ng·h/mL
  AUC(0–∞): 5545 ± 814 ng·h/mL
  C max: 639 ± 130 ng/mL
  CLz/F: 91.8 ± 13.9 mL/min/kg
  MRT(0–t): 7.326 ± 0.53 h
  MRT(0–∞): 8.679 ± 1.301 h
  T max: 3.8 ± 0.447 h
  Vz/F: 43.5 ± 16.1 L/kg
  t (1/2)z: 5.376 ± 1.495 h
[1]; [7]
  AUC(0−t) increased in comparison with group B: 19.7%
  C max increased in comparison with group B: 19.3%

## O=c1cc(-c2ccc(O)cc2)oc2cc(O)cc(O)c12 [apigenin, reference compound]
[1]; 252 mg/kg vs 165 mg/kg short-time apigenin, rats
  dose dependence of effect on imatinib: not dose dependent
[1]; long-term oral administration of apigenin (165 mg/kg for 15 days), rats
  effect on the metabolism of imatinib in vivo: accelerated
[1]; single dose of apigenin, rats
  effect on the metabolism of imatinib in vivo: inhibited

## Cc1ccc(NC(=O)c2ccc(CN3CCN(C)CC3)cc2)cc1Nc1nccc(-c2cccnc2)n1 [imatinib, reference compound]
[1]; male, Sprague-Dawley, rat, in vivo, 30 mg/kg
  V z/F decreased (printed: in group B): 55.1%
[1]; male, Sprague-Dawley, rat, in vivo, po, 30 mg/kg, AUC(0–t)
  AUC(0-t): 90600 ± 11300 ng·h/mL
[1]; male, Sprague-Dawley, rat, in vivo, po, 30 mg/kg, AUC(0–∞)
  AUC(0-inf): 91000 ± 11600 ng·h/mL
[1]; male, Sprague-Dawley, rat, in vivo, po, 30 mg/kg, C max
  Cmax: 12100 ± 2020 ng/mL
[1]; male, Sprague-Dawley, rat, in vivo, po, 30 mg/kg, T max
  Tmax: 3 ± 1 h
[2]
  oral bioavailability: ~97%
